Marks after values point to notes of the source that are not given here. Residues, ends and D or L forms follow the SMILES beside them. No end group written: not given here.
Tests used:
wild-type DegS [1] = molecular target: T1, wild-type DegS (Escherichia coli, UniProt P0AEE3); test: OMP-peptide activation of RseA cleavage by wild-type DegS; format: biochemical, E. coli; details: for Hill Constant (peptide activation): 200 μM RseA
D320A DegS [2] = molecular target: T2, D320A DegS (Escherichia coli, UniProt P0AEE3, D320A); test: Global fit to MWC allosteric model, D320A DegS; format: biochemical, E. coli; details: D320A, MWC global fit; for KRS, dissociation constant of RseA substrate for R-state subunit / KTS, dissociation constant of RseA substrate for T-state subunit: not peptide, binding; for L0, equilibrium constant T/R of unliganded enzyme: enzyme parameter, peptide-independent; for KTP/KRP: peptide preference for relaxed state; for kr, rate constant for cleavage of RseA by substrate-bound R-state subunits: same value for all enzymes and peptides
D320A DegS [3] = molecular target: T2, D320A DegS; test: OMP-peptide activation of RseA cleavage by D320A DegS; format: biochemical, E. coli; details: D320A; for Hill Constant (peptide activation): 200 μM RseA
wild-type DegS [4] = molecular target: T1, wild-type DegS; format: biochemical, E. coli; details: for L0, equilibrium constant T/R of unliganded enzyme / KTP/KRP / kr, rate constant for cleavage of RseA by substrate-bound R-state subunits: MWC global fit; for L0, equilibrium constant T/R of unliganded enzyme: enzyme parameter, peptide-independent; for KTP/KRP: peptide preference for relaxed state; for kr, rate constant for cleavage of RseA by substrate-bound R-state subunits: same value for all enzymes and peptides
K243D mutant of DegS [5] = molecular target: T3, K243D mutant of DegS (Escherichia coli, UniProt P0AEE3, K243D); test: Global fit to MWC allosteric model, K243D DegS; format: biochemical, E. coli; details: K243D, MWC global fit
K243D mutant of DegS [6] = molecular target: T3, K243D mutant of DegS; test: OMP-peptide activation of RseA cleavage by K243D DegS; format: biochemical, E. coli; details: K243D
wild-type DegS [7] = molecular target: T1, wild-type DegS; format: biochemical, E. coli; details: wild-type DegS 0.9 μM trimer; 20 μM rhodamine-FP; saturating peptide
[8] = molecular target: DegS K243D (residues 27–355, N-terminal His6 tag) (E. coli) (UniProt P0AEE3); test: enzyme kinetics
[9] = molecular target: T4, DegS K243D (residues 27–355, N-terminal His6 tag) (E. coli, UniProt P0AEE3 27-355, K243D); test: enzyme kinetics
T4 sequence (looked up): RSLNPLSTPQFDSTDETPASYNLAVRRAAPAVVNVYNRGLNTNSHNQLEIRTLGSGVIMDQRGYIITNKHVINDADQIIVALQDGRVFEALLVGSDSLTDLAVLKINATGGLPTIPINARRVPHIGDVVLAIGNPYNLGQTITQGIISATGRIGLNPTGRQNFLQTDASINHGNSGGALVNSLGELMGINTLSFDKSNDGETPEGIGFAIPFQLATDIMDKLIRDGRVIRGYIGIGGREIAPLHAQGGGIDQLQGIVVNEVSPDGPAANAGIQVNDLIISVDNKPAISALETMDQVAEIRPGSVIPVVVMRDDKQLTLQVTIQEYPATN

[10] = molecular target: T5, DegS D320A (residues 27–355, N-terminal His6 tag) (E. coli, UniProt P0AEE3 27-355, D320A); test: enzyme kinetics
T5 sequence (looked up): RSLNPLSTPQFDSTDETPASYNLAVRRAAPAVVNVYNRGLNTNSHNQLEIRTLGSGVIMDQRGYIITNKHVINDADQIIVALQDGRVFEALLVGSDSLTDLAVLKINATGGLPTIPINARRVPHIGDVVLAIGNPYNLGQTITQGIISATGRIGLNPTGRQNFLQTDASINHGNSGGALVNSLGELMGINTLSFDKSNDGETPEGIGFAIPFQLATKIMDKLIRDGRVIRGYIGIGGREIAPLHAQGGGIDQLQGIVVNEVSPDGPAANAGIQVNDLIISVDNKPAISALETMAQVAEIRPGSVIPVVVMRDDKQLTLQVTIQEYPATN

[11] = saturating peptide, single sub-KM RseA concentration

T1 sequence (P0AEE3 27-355): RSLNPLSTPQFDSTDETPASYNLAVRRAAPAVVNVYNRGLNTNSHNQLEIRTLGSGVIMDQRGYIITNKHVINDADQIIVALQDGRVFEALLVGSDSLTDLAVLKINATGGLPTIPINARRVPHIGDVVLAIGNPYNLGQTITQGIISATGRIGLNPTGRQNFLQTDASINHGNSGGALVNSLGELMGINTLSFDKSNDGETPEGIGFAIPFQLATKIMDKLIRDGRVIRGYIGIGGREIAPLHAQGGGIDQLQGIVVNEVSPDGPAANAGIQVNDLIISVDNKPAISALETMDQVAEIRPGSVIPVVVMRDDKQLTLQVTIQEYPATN

In the case of `NC(=O)CC[C@H](NC(=O)[C@@H](N)Cc1ccc(O)cc1)C(=O)N[C@@H](Cc1ccccc1)C(=O)O` [YQF] (H-Tyr-Gln-Phe-OH), the “displacement in concentration between YYF and YQF activation curves” value (wild-type DegS [1]; wild-type DegS) is reported as roughly 10 fold and the “Hill Constant (peptide activation)” value (wild-type DegS [1]; wild-type DegS) is reported as 1.6 ± 0.1.

In the case of DNRDGNVYQF [DNRDGNVYQF], the “KRS, dissociation constant of RseA substrate for R-state subunit” value (shortened to “KRS, dissociation constant”) (D320A DegS [2]) is reported as 150 µM, the “KTS, dissociation constant of RseA substrate for T-state subunit” value (“KTS, dissociation constant” below) (D320A DegS [2]) is reported as 505 µM and the “L0, equilibrium constant T/R of unliganded enzyme” value (from here on “L0, equilibrium constant T/R”) (D320A DegS [2]) is reported as 350. The KTP/KRP (D320A DegS [2]) was 2.8, the “kr, rate constant for cleavage of RseA by substrate-bound R-state subunits” value (shortened to “kr … by substrate-bound R-state subunits”) (D320A DegS [2]) was 3.3 s⁻¹ and the “Hill Constant (peptide activation)” value (wild-type DegS [1]; wild-type DegS) was 1.6 ± 0.1. The “Hill Constant (peptide activation)” value (D320A DegS [3]) was 1.2 ± 0.1, the “RseA cleavage relative to wild-type DegS” value (D320A DegS [3]; [11]) was “about three-fold faster” and the “L0, equilibrium constant T/R” value (wild-type DegS [4]) was 15000. The KTP/KRP (wild-type DegS [4]) was 6.1, the “kr … by substrate-bound R-state subunits” value (wild-type DegS [4]) was 3.3 s⁻¹ and the “KRS, dissociation constant” value (K243D mutant of DegS [5]; RseA, not peptide, binding) was 150 µM. The “KTS, dissociation constant” value (K243D mutant of DegS [5]; RseA, not peptide, binding) was 505 µM, the “L0, equilibrium constant T/R” value (K243D mutant of DegS [5]; enzyme parameter, peptide-independent) was 180 and the KTP/KRP (K243D mutant of DegS [5]; peptide preference for relaxed state) was 1.9. For the same molecule, the “kr … by substrate-bound R-state subunits” value (K243D mutant of DegS [5]; same value for all enzymes and peptides) was 3.3 s⁻¹, the “Hill Constant (peptide activation)” value (K243D mutant of DegS [6]; 200 μM RseA) was 1.3 ± 0.1 and the “RseA cleavage relative to wild-type DegS” value (K243D mutant of DegS [6]; [11]) was “about three-fold faster”.

In the case of EDGEDGDYYF [EDGEDGDYYF], the “KRS, dissociation constant” value (D320A DegS [2]) is reported as 150 µM, the “KTS, dissociation constant” value (D320A DegS [2]) is reported as 505 µM and the “L0, equilibrium constant T/R” value (D320A DegS [2]) is reported as 350. The KTP/KRP (D320A DegS [2]) was 2.1, the “kr … by substrate-bound R-state subunits” value (D320A DegS [2]) was 3.3 s⁻¹ and the “Hill Constant (peptide activation)” value (wild-type DegS [1]; wild-type DegS) was 1.3 ± 0.1. The “Hill Constant (peptide activation)” value (D320A DegS [3]) was 1.3 ± 0.1 and the “rate of rhodamine-FP modification in presence of peptide (order)” value (wild-type DegS [7]) was “slower still”.

In the case of KRRKGKVYYF [KRRKGKVYYF], the EC50 (wild-type DegS [1]) is reported as no more than 1000 nM, the “Hill Constant (peptide activation)” value (wild-type DegS [1]; wild-type DegS) is reported as ~1.2 ^a and the “apparent affinity (in words)” value (wild-type DegS [1]; wild-type DegS, among tested peptides) is reported as “highest apparent affinity”. The “maximal activation (in words)” value (wild-type DegS [1]; wild-type DegS, saturating peptide) was “lowest maximal activation”, the “L0, equilibrium constant T/R” value (wild-type DegS [4]) was 15000 and the KTP/KRP (wild-type DegS [4]) was 3.3. For the same molecule, the “kr … by substrate-bound R-state subunits” value (wild-type DegS [4]) was 3.3 s⁻¹, the “DegS molecules in active conformation” value (wild-type DegS [4]; saturating peptide and saturating RseA substrate, MWC model) was 9% and the “rate of rhodamine-FP modification in presence of peptide (order)” value (wild-type DegS [7]) was “slowest”.

Work on YYF tripeptide yielded a KRP (dissociation constant for an R-state subunit) [8] of 1.24 µM and a KTP (dissociation constant for a T-state subunit) [8] of 3.76 µM.

B1: OMP peptide DNRDGNVYYF (peptide)
peptide: DNRDGNVYYF
For B1, the “KRP (dissociation constant for an R-state subunit)” value [9] was 0.07 µM, the “KTP (dissociation constant for a T-state subunit)” value [9] was 0.14 µM and the “KRP (dissociation constant for an R-state subunit)” value [10] was 0.06 µM. The “KTP (dissociation constant for a T-state subunit)” value [10] was 0.2 µM.

B2: OMP peptide DNRDGNVYQF (peptide)
peptide: DNRDGNVYQF
With B2 the “KRP (dissociation constant for an R-state subunit)” value [9] was 1.64 µM, the “KTP (dissociation constant for a T-state subunit)” value [9] was 3.19 µM and the “KRP (dissociation constant for an R-state subunit)” value [10] was 1.09 µM. For the same molecule, the “KTP (dissociation constant for a T-state subunit)” value [10] was 2.98 µM.

B3: OMP peptide EDGEDGDYYF (peptide)
peptide: EDGEDGDYYF
B3 was tested, and the “KRP (dissociation constant for an R-state subunit)” value [10] was 4.02 µM and the “KTP (dissociation constant for a T-state subunit)” value [10] was 8.5 µM.
